# Assays:
# [1] = tested on: φX-174 plasmid DNA; assay: Photonicking of φX-174 plasmid DNA, gel electrophoresis; assay type: biochemical; conditions: for photonicking of φX-174 plasmid DNA: Example IX, dark and upon exposure to light
# Procedure: Photolysis with φX-174 Plasmid DNA. Metal complex solutions (with or without quenchers) were saturated with oxygen or argon prior to irradiation. The solutions were further degassed after being mixed with the plasmid. The final solution concentrations were: DPPZPHEN ([…]), φX-174 plasmid DNA (205 μM in base pairs), superoxide dismutase (25 μg/mL), 2-propanol (0.5 M), mannitol (6.25 mM), histidine (8 mM).
# Experiments were conducted as described in Example X to evaluate the amount photonicking that occurred in the dark and upon exposure to light for 37TMBP, 56TMBP, OCTBP, BISNMe2, TMOBP, TIOBP, TPBP, BISTAP and BISDPPZ.
# [2] = tested on: Calf thymus DNA; assay: Dark association with DNA, UV-Visible titration (Example XI); assay type: binding; conditions: 50 mM pH 7 I=0.15 sodium phosphate buffer (physiological condition)
# Procedure: Preparation of DNA solution. Calf thymus DNA (Sigma) was dissolved in 50 mM, pH 7, I=0.15 sodium phosphate buffer (Physiological condition) and sonicated. The purity of the DNA was checked by monitoring the absorption spectrum and the ratio of the absorbance at 260 to 280 nm. The ratio were within the acceptable purity margin (1.8±0.1). The concentration of the Calf thymus DNA per phosphate was determined spectrophotometrically: ε253=6600 for calf thymus DNA^1. The concentration was 2.13 E-3 M.
# The resulting solution was diluted 4 times with phosphate buffer. […] 0, 50 μL, 150 μL, 200 μL, 300 μL, 350 μL and 500 μL of DNA solutions were added, mixed well with a small disposable needle, and spectra were recorded again. The concentration of the species, the apparent absorbance at 337 nm, and the apparent extinction coefficients at 337 nm were determined from the absorptions spectra and tabulated in Table 1.
# The apparent binding constant, Kapp was determined from the plot of [DNA]/Δεapp versus [DNA], where Δεapp=εf−εapp and Δε=εf−εb^2, where εb and εf correspond to the extinction coefficient of the DNA-bound form of the OCTBP derivatives and the extinction coefficient of the DNA-unbound OCTBP derivatives, respectively. […] Cb=(εfCtotal−Aobserved)/Δε The concentration of the DNA-unbound OCTBP derivatives (Cf) can be determined by Cf=Ctotal−Cb […]
# [3] = Reversed phase HPLC elution on C8 column as measure of hydrophobicity; assay type: physicochemical
# Procedure: Reversed phase high performance liquid chromatography (RP-HPLC) was carried out on C8 columns. Compounds were tested using 20%, 30% and 45% acetonitrile in 100 mM ammonium acetate at pH 5.4 for elution on a C8 column, with the intention of achieving an elution time of about 15 minutes. It was expected that the more hydrophobic a compound, the higher the acetonitrile content one would need for the eluent.
# [4] = tested on: cells; assay: Phototoxicity, summary statement of Example XII; assay type: cell-based
# [5] = tested on: cell membrane; assay: Cell uptake / passage through the cell membrane
# Procedure: OCTBP uptake by KB cells. 11 mg of OCTBP was dissolved in 40 mL of PBS buffer. The solution was vortex stirred for 5 minutes to completely dissolve the solid. The solution was sterile filtered through a 0.2μ nylon syringe filter. The concentration of the solution was determined by measuring the UV absorption at 353 nm (ε353nm=1565 M^−1cm^−1).
# Once the cells were 75% confluent media was decanted from the flasks and 8 mL of drug solutions were added to three flasks and 8 mL of PBS buffer solution was added to the control flask. The flasks were incubated at 37° C. for 15, 30 and 45 minutes. Control flask was incubated for 45 minutes. When the flasks were removed, they were washed with 6×10 mL of PBS buffer solution. All the liquid was carefully decanted from the flasks. 1 mL of lysing buffer (1% triton X-100) was added to each of the four flasks. The walls of the flasks were rinsed using disposable pipettes. Once all the contents of the flasks were placed into a 1.5 mL disposable centrifuge tubes (each flask yielded ˜1.2 mL), the tubes were centrifuged at 6000 rpm and at 4° C. for 30 minutes on the Fisher Model 59V high-speed centrifuge. BCA Assay was done to establish the amount of cells in each flask.
# Rh content of each flask was determined using an inductively coupled plasma (ICP) instrument (AtomScan16, Thermo Elemental, Franklin, Mass.). From each centrifuge tube 1 mL was pipetted and 370 μL of concentrated HCl was added to form a 10% solution. The samples were heated in a hot water bath at 70° C. for 30 minutes. The samples were centrifuged again and the supernatant liquid was diluted to 8 mL by adding nano-pure water. The samples were analyzed for Rh content by ICP.
# [6] = tested on: DNA; set-up: association with DNA in the dark: dose or concentration left out as unconfirmed; conditions: cited from earlier work
# [7] = tested on: KB (human nasopharingeal carcinoma) cells; conditions: cited from earlier work
# [8] = Photodestruction (photoaquation) with visible light >500 nm, HPLC analysis; assay type: physicochemical; conditions: 0.1 mM aqueous, 8 hours under argon
# Procedure: Aqueous solutions (3 mL, 0.1 mM) of the Rh complexes were irradiated for 8 hours under argon using a 450 W Hanovia medium pressure mercury lamp filtered through a uranium yellow glass (cut-off<330 nm) and a 1.5 cm 0.5% (w/v) aqueous solution of K2Cr2O7 (0% transmittance≦500 nm). Photodestruction of the metal complexes was followed by HPLC analysis.
# [9] = Dark thermal aquation and thermal base hydrolysis; assay type: physicochemical; conditions: 80° C. with 10% NaOH
# Text: A dissociation/addition mechanism is generally accepted as responsible for the substitution chemistry associated with a hexacoordinated Rh(III) ligand field triplet (Weiland et al., Inorg. Chem., 25:4893 (1986)). The dissociation step is due to the promotion of an electron from the t2g orbital to the eg orbital, which leads to significant weakening of the metal ligand bonds. (Hipps et al., Inorg. Chem., 13:1544 (1974)).
# [10] = tested on: nucleic acid; conditions: irradiated with light; cited from earlier work
# [11] = tested on: HeLa (human cervical carcinoma) cells; conditions: cited from earlier work
# [12] = tested on: CT DNA; assay: Dark interaction of DPPZPHEN with CT DNA, UV-Vis absorption titration at 380 nm; assay type: binding, calf
# Procedure: General. The quantity of DNA was determined by the Burton assay (Burton, Biochem. J., 62:315-322 (1956)), and its rhodium content was quantitated using flame atomic absorption spectroscopy (AA). The equilibrium constant for interaction between DPPZPHEN and CT-DNA in the dark was calculated from UV-Vis absorption titration measurements at 380 nm (Wolfe et al., Biochem., 26:6392-6396 (1987); Schemel et al., Biopolymers, 10:465-480 (1971)). Cell viability was determined using the MTT assay (Denizot et al., J. Immunol. Methods, 89:271-277 (1986)). SINV was purified on sucrose gradients as previously described (Owen et al., J. Virol., 70:2757-2763 (1996)). The titer was generally 7-8 log10 pfu/mL at the beginning of each experiment.
# Interaction of DPPZPHEN with DNA. […] An intrinsic binding constant of […] 3.4×10^5 M^−1 was calculated using the molar extinction coefficient at the λmax (380 nm) at each titration point.
# [13] = tested on: KB cells; conditions: delivered to cells by liposome; cited from earlier work
# [14] = tested on: bacteriophage φ6; conditions: cited from earlier work
# [15] = tested on: Sindbis virus; conditions: cited from earlier work
# [16] = tested on: naked infectious DNA from phages S13 and G4; conditions: cited from earlier work
# [17] = 45% acetonitrile in 100 mM ammonium acetate pH 5.4
structure (smiles),measurement,setting,value
"Cc1c(C)c2c3c4c1=CC=C[N]4[Rh+]1([Cl])([Cl])([N]3C=CC=2)[N]2C=CC=c3c(C)c(C)c4c(c32)[N]1C=CC=4.[Cl-] [56TMBP, cis-dichlorobis(5,6-dimethyl-1,10-phenanthroline) rhodium(III) chloride]",photonicking of φX-174 plasmid DNA,[1],"Only TPBP, BISTAP, BISDPPZ and BISDPPHEN complexes were found to photonick"
"CN(C)C1=c2ccc3c4c2[N](C=C1)[Rh+]1([Cl])([Cl])([N]4C=CC=3N(C)C)[N]2C=CC(N(C)C)=c3ccc4c(c32)[N]1C=CC=4N(C)C.[Cl-] [BISNMe2, cis-dichlorobis(N,N-dimethylamino)-1,10-phenanthroline} rhodium(III) chloride]",apparent (intrinsic) binding constant Kapp,[2],2.0 E4 M
same,elution time,[3]; [17],about 15 minutes
same,photonicking of φX-174 plasmid DNA,[1],"Only TPBP, BISTAP, BISDPPZ and BISDPPHEN complexes were found to photonick"
same,phototoxicity,[4],are phototoxic
same,ability to pass through the cell membrane,[5],able to pass through the cell membrane
"[Cl-].[Cl-].[Cl-].[Rh+3].c1cnc2c(c1)ccc1cccnc12.c1cnc2c(c1)ccc1cccnc12 [BISPHEN, cis-dichlorobis(1,10-phenanathroline) rhodium(III) chloride]",dark association with DNA,[6]; dark,minimal dark association
same,association with DNA in the dark,[6]; very low ionic strength,only a minimal association
same,uptake by cells,[7],not taken up
same,elution time,[3]; 20% acetonitrile in 100 mM ammonium acetate pH 5.4,about 15 minutes
same,photodestruction,[8],virtually unaffected
same,"thermal hydrolysis, rank order",[9],OCTBP≅37TMBP>BISPHEN
same,covalent binding to nucleic acid upon irradiation,[10],covalently binds to nucleic acid
same,frank nicks / nicking of φX-174 supercoiled plasmid DNA upon irradiation,"[1]; 311 nm irradiation, Example VIII",does not generate such frank nicks
same,uptake by cells,[11],not taken up
same,interaction with CT DNA in the dark,[12],negligible interaction
same,phototoxicity against KB cells,[13],marginal levels of phototoxicity
same,activity against bacteriophage φ6,[14],did not exhibit any activity
same,phototoxicity / virucidal activity against Sindbis virus,[15],minimal phototoxicity
same,ability to pass through the cell membrane,[5],Neither of these compounds is able to pass through a cell membrane
same,phototoxicity to single stranded and double stranded naked infectious DNA,[16],phototoxic
"CC(C)OC1=c2ccc3c4c2[N](C=C1)[Rh+]1([Cl])([Cl])([N]4C=CC=3OC(C)C)[N]2C=CC(OC(C)C)=c3ccc4c(c32)[N]1C=CC=4OC(C)C.[Cl-] [TIOBP, cis-dichlorobis(3,7-diisopropoxy-1,10 phenanthroline) rhodium(III) chloride]",elution time,[3]; [17],about 15 minutes
same,photonicking of φX-174 plasmid DNA,[1],"Only TPBP, BISTAP, BISDPPZ and BISDPPHEN complexes were found to photonick"
CC1=c2ccc3c4c2[N](C=C1)[Rh+]1([Cl])([Cl])([N]4C=CC=3C)[N]2C=CC(C)=c3ccc4c(c32)[N]1C=CC=4C.[Cl-] [37TMBP],photodestruction,[8],6.1 % loss
same,"thermal hydrolysis, rank order",[9],OCTBP≅37TMBP>BISPHEN
same,photonicking of φX-174 plasmid DNA,[1],"Only TPBP, BISTAP, BISDPPZ and BISDPPHEN complexes were found to photonick"
"COC1=c2ccc3c4c2[N](C=C1)[Rh+]1([Cl])([Cl])([N]4C=CC=3OC)[N]2C=CC(OC)=c3ccc4c(c32)[N]1C=CC=4OC.[Cl-] [TMOBP, cis-dichlorobis(4,7-dimethoxy-1,10-phenanthroline) rhodium(III) chloride]",elution time,[3]; [17],about 15 minutes
same,photonicking of φX-174 plasmid DNA,[1],"Only TPBP, BISTAP, BISDPPZ and BISDPPHEN complexes were found to photonick"
[Cl-].[Cl][Rh+]12([Cl])([N]3C=CC=c4c3c3c(c5nccnc45)=CC=C[N]31)[N]1C=CC=c3c1c1c(c4nccnc34)=CC=C[N]12,elution time,[3]; [17],8 to 10 min
"[Cl-].[Cl][Rh+]12([Cl])([N]3C=CC=c4c3c3c(c5nc6ccccc6nc45)=CC=C[N]31)[N]1C=CC=c3c1c1c(c4nc5ccccc5nc34)=CC=C[N]12 [BISDPPZ, cis-dichlorobis{dipyrido(3,2-a: 2′,3′-c)phenazine)rhodium (III) chloride]",elution time,[3]; [17],around 30 minutes
same,photonicking of φX-174 plasmid DNA,[1],found to photonick
"[Cl-].[Cl][Rh+]12([Cl])([N]3C=CC(c4ccccc4)=c4ccc5c(c43)[N]1C=CC=5c1ccccc1)[N]1C=CC(c3ccccc3)=c3ccc4c(c31)[N]2C=CC=4c1ccccc1 [TPBP, cis-dichlorobis(4,7-diphenyl-1,10-phenanthroline) rhodium(III) chloride]",elution time,[3]; [17],around 30 minutes
same,photonicking of φX-174 plasmid DNA,[1],found to photonick
